Measured values as given in patent publication US9228121B2, “Process for the co-encapsulation of biocidally active compounds in clay minerals functionalized by nitrogen compounds” (Clariant S.A., priority 2010, dated 2016).

Columns and labels:
Algae suspension = assay: Algae growth test on leached dry paint film; assay type: cell-based; settings: ppm of BKC relatively to the paint, after leaching
Procedure: Test specimens were prepared by application of two paint coats on watercolor paper ([…]) for each biocidal composition. After application, test specimens were dried during 7 days. After drying, coated substrates were cut in 30 mm squares. The test specimens were evaluated after a leaching test where the coated substrates were leached for 8 and 24 hours in 2 L containers of water with a flow rate such that there are 6 changes of the water in a period of 24 hours. Coated substrates were dried to room temperature for 48 hours and then evaluated in terms of microbiological effectiveness. The algicidal effect on dry film was evaluated as described bellow: Inoculums were prepared with a suspension of algae species (Trentepohlia odorata, Chlorella sp and Scenedesmus quadricauda) at concentration of 10^6 cells/mL. Coated substrates were placed on the center of a pre-poured Bold's Basal Medium agar plates. A thin coat of the algae suspension was applied over the plates. Plates were incubated with humidity ≧85%, 25° C. and cycle of 12 hours light and 12 hours darkness. For each biocidal composition the test was done three times. The algae growth on the sample surface was evaluated weekly for 3 weeks using the following scale: […]

[1] = Tray test for leaching of biocides from paint film; assay type: physicochemical; settings: paint with 1000 ppm biocidally active agent, 500 mL distilled water, detection limit 50 ppm
Procedure: Additionally, the leaching of biocides was evaluated through a tray test in which 50 g of the a paint formulation containing 1000 ppm of biocidally active agent was applied in the bottom of a tray (23.5×38.0 cm) each time and the painting procedure was repeated twice. The film was dried at room temperature for seven days and then 500 mL of distilled water was added to the tray, after 1, 3, 6 and 24 hours a 10 mL sample were taken and analyzed for determination of the biocides.

C12/C14-alkyldimethyl benzyl ammonium chloride [Dodigen ® 2808]
Effective concentration against algae (ppm relatively to the paint) (Algae suspension): >>2000 ppm of BKC
Effective concentration against algae (ppm relatively to the paint) (Algae suspension; listed as neat BKC): > 2000 ppm
Tray test: biocide leached into water ([1]; 1 hour): 164 ppm
Tray test: biocide leached into water ([1]; 3 hours): 177 ppm
Tray test: biocide leached into water ([1]; 6 hours): 190 ppm
Tray test: biocide leached into water ([1]; 24 hours): 224 ppm
